Reference: PubChem BioAssay AID2060510 (Molecular Pharmacology Branch, DTP, NCI, 2025)

System: 439559-082-T-J2-PDC spheroids viability
Assay: Anticancer human tumor 439559-082-T-J2-PDC patient-derived colon adenocarcinoma cell line growth inhibition [GQUAD]
Conditions: for IC50: curve of first compound; for viability, T/C: stronger effect = lower value; active = viability on the fitted dose curve at most 10% of control; inactive = the rest
Text: DNA G-quadruplex Stabilizer Agents in Combinations in Complex Spheroids
A high-throughput screen of multi-cell type tumor spheroids was designed to identify active combinations of DNA G-quadruplex stabilizer agents and targeted small molecules. Complex spheroids include a stromal component modeled by human endothelial cells (HUVEC) and fibroblasts modeled by human mesenchymal stem cells (MSCs). The concentration ranges selected for each drug and investigational agent were based upon clinically achievable concentrations if the clinical Cmax of the agent was known.
Compounds. The drugs and investigational agents: pidnarulex (CX-5461; NSC782164), APTO-253 (NSC789042), BRACO-19 (NSC847499), peposertib (NSC802822), ceralasertib (NSC780249), elimusertib (NSC800525), camonsertib (NSC841442), AZD-1390 (NSC803789), olaparib (NSC753686), talazoparib (NSC767125), ART-558 (NSC835418), sotorasib (NSC818433), MRTX-1133 (NSC836407), SN-38 (NSC673596), topotecan (NSC609699), etoposide (NSC141540), doxorubicin (NSC123127), gemcitabine (NSC613327), 5-fluorouracil (NSC19893), paclitaxel (NSC125973), vemurafenib (NSC761431), panobinostat (NSC761190), R-306465 (JNJ-16241199; NSC773264), adavosertib (NSC754352), TP-3654 (NSC805149), carboplatin (NSC241240), KSQ-4279 (NSC840948), and staurosporine (NSC755774) were obtained from the National Cancer Institute (NCI) Developmental Therapeutics Program Chemical Repository (34). The FDA-approved anticancer drug set is available from the NCI Developmental Therapeutics Program. […] The stock solutions were prepared in dimethyl sulfoxide (DMSO, Sigma-Aldrich, St. Louis, MO, cat. D2650) at 800-fold the tested concentration and stored at -70 degrees C prior to their use. All drugs and investigational agents were tested over a range starting from a high concentration at or near the clinical Cmax and decreasing in half-log increments. If the clinical Cmax for an agent had not been determined, the highest concentration tested was 10 microM.
2.3 Cell Culture. All cells were maintained in an incubator at 37 degrees C and 5% CO2 with 95% humidity. The PDC lines were cultured according to standard operating procedures established by the NCI PDMR. All PDCs were thawed and cultured in Matrigel-coated flasks prepared with a working solution of 1X Ham's F-12 nutrient mix, without supplementation (Invitrogen, cat. 11765054), 100 U/mL penicillin-streptomycin (Invitrogen, cat. 15140122), and 2.5% Matrigel (Corning Inc., cat. 354248) for the first three passages. The 857933-349-R-J2-PDC line was cultured in 6C/Colon 1B media, which includes advanced DMEM/F-12 (Thermo Fisher Scientific, cat. 12634028), 10 mM HEPES (Thermo Fisher Scientific, cat. 15630080), 1X GlutaMAX supplement (Thermo Fisher Scientific, cat. 35050061), 0.1 mg/mL primocin (InvivoGen, cat. ant-pm-2), 10% defined fetal bovine serum, heat inactivated (HyClone Laboratories Inc., cat. SH30070.03HI), 50% L-WRN conditioned media (ATCC, cat. CRL-3276), 1.25 mM N-Acetyl-L-cysteine (Sigma-Aldrich, cat. A9165), 10 mM nicotinamide (Sigma-Aldrich, cat. N0636), 1X B-27 supplement (Thermo Fisher Scientific, cat. 17504044), 1X N-2 supplement (Thermo Fisher Scientific, cat. 17502048), 10 microM Y-27632 dihydrochloride (Tocris Bioscience, cat. 1254), and 50 ng/mL human EGF recombinant protein (Thermo Fisher Scientific, cat. PHG0311). The 485176-168-R4-J1-PDC line was cultured in Panc media, which includes all 6C/Colon 1B media components plus 100 ng/mL human FGF-10 (Thermo Fisher Scientific, cat. 100-26), 500 nM SB-431542 (Selleckchem, cat. S1067), and gastrin (Tocris, cat. 3006).
[…]
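Also: spheroids exposed to the agents for 7 days before readout.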
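For viability, T/C in this document: percent of luminescence signal in DMSO vehicle wells taken as 100% viability.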

COc1cccc2c1C(=O)c1c(O)c3c(c(O)c1C2=O)CC(O)(C(=O)CO)CC3OC1CC(N)C(O)C(C)O1 (configuration not stated) + Cc1cnc(CNC(=O)c2c(=O)c3ccc(N4CCCN(C)CC4)nc3n3c2sc2ccccc23)cn1
6.8 µM: IC50 (second compound 1 µM)
5.35 µM: IC50 (second compound 0.1 µM)
4.05 µM: IC50 (second compound 0.0316 µM)
inactive: viability, T/C (second compound 0.0316 µM, first compound 0.0316 µM) 99% | viability, T/C (second compound 0.0316 µM, first compound 0.1 µM) 95.1% | viability, T/C (second compound 0.0316 µM, first compound 0.316 µM) 87.3% | viability, T/C (second compound 0.0316 µM, first compound 1 µM) 77.6% | viability, T/C (second compound 0.0316 µM, first compound 3.16 µM) 48.9% | viability, T/C (second compound 0.0316 µM, first compound 10 µM) 45.3% | viability, T/C (second compound 0.1 µM, first compound 0.0316 µM) 101% | viability, T/C (second compound 0.1 µM, first compound 0.1 µM) 96.7% | viability, T/C (second compound 0.1 µM, first compound 0.316 µM) 89.6% | viability, T/C (second compound 0.1 µM, first compound 1 µM) 70.3% | viability, T/C (second compound 0.1 µM, first compound 3.16 µM) 54.3% | viability, T/C (second compound 0.1 µM, first compound 10 µM) 45.3% | viability, T/C (second compound 0.316 µM, first compound 0.0316 µM) 79.9% | viability, T/C (second compound 0.316 µM, first compound 0.1 µM) 73% | viability, T/C (second compound 0.316 µM, first compound 0.316 µM) 69.6% | viability, T/C (second compound 0.316 µM, first compound 1 µM) 79.3% | viability, T/C (second compound 0.316 µM, first compound 3.16 µM) 57.2% | viability, T/C (second compound 0.316 µM, first compound 10 µM) 45.9% | viability, T/C (second compound 1 µM, first compound 0.0316 µM) 70% | viability, T/C (second compound 1 µM, first compound 0.1 µM) 73.3% | viability, T/C (second compound 1 µM, first compound 0.316 µM) 69.7% | viability, T/C (second compound 1 µM, first compound 1 µM) 63.6% | viability, T/C (second compound 1 µM, first compound 3.16 µM) 61.6% | viability, T/C (second compound 1 µM, first compound 10 µM) 44.7% | viability, T/C (second compound 3.16 µM, first compound 0.0316 µM) 71% | viability, T/C (second compound 3.16 µM, first compound 0.1 µM) 67.2% | viability, T/C (second compound 3.16 µM, first compound 0.316 µM) 65% | viability, T/C (second compound 3.16 µM, first compound 1 µM) 60.3% | viability, T/C (second compound 3.16 µM, first compound 3.16 µM) 55.3% | viability, T/C (second compound 3.16 µM, first compound 10 µM) 41.1% | viability, T/C (second compound 10 µM, first compound 0.0316 µM) 63.3% | viability, T/C (second compound 10 µM, first compound 0.1 µM) 67.7% | viability, T/C (second compound 10 µM, first compound 0.316 µM) 63.1% | viability, T/C (second compound 10 µM, first compound 1 µM) 54.2% | viability, T/C (second compound 10 µM, first compound 3.16 µM) 51% | viability, T/C (second compound 10 µM, first compound 10 µM) 44.2%
7.15 µM: IC50 (second compound 0.316 µM)
3.83 µM: IC50 (second compound 10 µM)
4.51 µM: IC50 (second compound 3.16 µM)
